Results: publication PMC5750217 (Nature Communications, 2018)

What was measured:
[1] = molecular target: T1, A1-T458S/T459C (mutant ASCT1) (Homo sapiens, UniProt P43007, T458S/T459C); assay: Radiolabelled uptake in oocytes expressing A1-T458S/T459C; type: cell-based; conditions: 10 µM L-[3H]substrate, 10 min, room temperature
T1 construct: expressed in transfected cells; host or cells: Xenopus laevis oocytes (cRNA injection)
T1 sequence (P43007 1-532 T458S/T459C): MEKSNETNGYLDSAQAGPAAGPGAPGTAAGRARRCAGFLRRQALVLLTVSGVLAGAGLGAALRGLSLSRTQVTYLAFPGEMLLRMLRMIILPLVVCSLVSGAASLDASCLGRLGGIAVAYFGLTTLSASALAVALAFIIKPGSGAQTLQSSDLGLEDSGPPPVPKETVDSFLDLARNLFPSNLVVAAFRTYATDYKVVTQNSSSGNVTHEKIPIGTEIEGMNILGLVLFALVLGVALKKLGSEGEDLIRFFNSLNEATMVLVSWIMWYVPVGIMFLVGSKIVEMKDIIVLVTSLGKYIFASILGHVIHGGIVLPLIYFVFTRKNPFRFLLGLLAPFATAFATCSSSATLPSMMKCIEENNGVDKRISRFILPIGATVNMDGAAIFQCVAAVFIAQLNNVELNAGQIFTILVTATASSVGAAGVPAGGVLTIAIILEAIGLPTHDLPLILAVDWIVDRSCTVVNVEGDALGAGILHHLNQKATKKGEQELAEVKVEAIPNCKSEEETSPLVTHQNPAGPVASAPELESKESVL
Procedure: Uptake of L-[^3H]amino acids (PerkinElmer Life Sciences) was measured in oocytes expressing wild-type and mutant ASCT1, and uninjected oocytes. Five oocytes were incubated in Cl^−-containing buffer with 10 µM L-[^3H]amino acids at room temperature. After 10 min, uptake was terminated by three rapid washes in ice-cold Cl^−-containing buffer followed by lysis in 50 mM NaOH and 1% SDS. L-[^3H]amino acids were measured by scintillation counting using a Trilux beta counter (PerkinElmer Life Sciences).

[2] = molecular target: T2, ASCT2 (Homo sapiens, UniProt Q15758); assay: Two electrode voltage clamp, substrate-activated anion current in oocytes expressing ASCT2; type: cell-based
T2 sequence (Q15758 1-541): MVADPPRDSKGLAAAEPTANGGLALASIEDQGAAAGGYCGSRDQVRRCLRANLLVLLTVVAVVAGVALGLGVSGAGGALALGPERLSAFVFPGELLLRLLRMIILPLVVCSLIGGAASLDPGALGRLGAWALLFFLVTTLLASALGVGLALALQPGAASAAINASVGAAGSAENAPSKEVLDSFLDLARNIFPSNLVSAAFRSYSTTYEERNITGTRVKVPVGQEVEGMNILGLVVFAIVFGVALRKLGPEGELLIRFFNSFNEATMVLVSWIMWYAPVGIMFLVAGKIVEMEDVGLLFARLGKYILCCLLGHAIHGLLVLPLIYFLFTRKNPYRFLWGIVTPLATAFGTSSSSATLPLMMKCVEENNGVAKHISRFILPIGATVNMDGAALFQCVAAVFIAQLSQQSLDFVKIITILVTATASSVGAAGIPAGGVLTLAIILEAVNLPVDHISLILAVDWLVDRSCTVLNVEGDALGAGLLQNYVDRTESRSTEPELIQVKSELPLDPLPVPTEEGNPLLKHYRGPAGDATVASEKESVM
Procedure: All chemicals were obtained from Sigma unless otherwise stated. Stage V oocytes were harvested from female Xenopus laevis (frogs) which were obtained from Nasco (Fort Alkinson, USA). Frogs were anaesthetised with 6.5 mM tricaine neutralised with 7.14 mM sodium bicarbonate. After making an incision in the abdomen of the frog, ovarian sacs were removed and stored in OR-2 buffer (82.5 mM NaCl, 2 mM KCl, 1 mM MgCl2, 5 mM hemisodium HEPES, pH 7.5). This surgical procedure follows a protocol (#2016/970) approved by the University of Sydney Animal Ethics Committee under the Australian Code of Practice for the Care and Use of Animals for Scientific Purposes. […]
After 2–4 days of microinjection, current recordings were made using the two electrode voltage clamp technique with a Geneclamp 500 amplifier (Axon Instruments, Foster City, CA) interfaced with a MacLab 2e chart recorder (ADI Instruments, Sydney, Australia) using the chart software, and a Digidata 1322A (Axon Instruments) controlled by an IBM-compatible computer using the pClamp software (version 10, Molecular Devices, Union City, CA). […] Current–voltage relationships were calculated by subtracting steady state current measurements in the absence of substrate from corresponding current measurements in the presence of substrate. […]

SMILES	Radiolabelled substrate uptake into oocytes (in words) [1]	GPNA % inhibition of L-serine activated current ([2]; GPNA co-applied with EC50 of L-serine, 300 µM GPNA / 1 mM GPNA (Table 1 footnote))	IC50 ([2]; co-applied with EC50 of L-serine, read-out: IC50 for inhibition of L-serine activated current)
N[C@@H](CO)C(=O)O [L-serine]	robust accumulation	–	–
N[C@@H](CCC(=O)Nc1ccc([N+](=O)[O-])cc1)C(=O)O [GPNA, glutamyl-p-nitroanilide]	–	90 ± 5%	90 ± 20 µM
NC(=O)CC[C@H](N)C(=O)O [L-glutamine]	robust accumulation	–	–
